Series [1] has as its target T1, GLP-1R (Homo sapiens, UniProt P43220).
T1 construct: expressed in transfected cells; host or cells: CHO-K1
The experiment in a line: GLP-1 activity test (cAMP, chemiluminescence, CHO-K1 cell line stably expressing GLP-1R). It is filed as cell-based. Particulars: relative luminescence units, read-out: GLP-1 activity [EC50(pmol)]. The method, then: (§1) Upon stimulation by a specific agonist, GLP-1R activates the intracellular adenylate cyclase signaling pathway, resulting in an increase in cAMP levels and ultimately leading to insulin production and secretion. A cell line stably transfected with GLP-1R was stimulated with test compounds, thereby rapidly increasing intracellular cAMP levels. The relative luminescence units (RLU) of cells stimulated at various concentrations were measured by a chemiluminescence method, and the EC50 value of the agonist was calculated accordingly. This activity test method is currently a commonly used method for evaluating GLP-1 receptor agonist activity both domestically and internationally.
A CHO-K1 cell line stably expressing GLP-1R was used. The stable cells were stimulated with agonists at different concentrations, and the relative luminescence units after stimulation at each concentration were measured to calculate the EC50 value of the agonist.

Series [2] has as its target T2, GCG-R (Homo sapiens, UniProt P47871).
T2 construct: expressed in transfected cells; host or cells: CHO-K1
Description: GCG activity test (cAMP, chemiluminescence, CHO-K1 cell line stably expressing GCG-R). It is filed as cell-based. To be noted: relative luminescence units, read-out: GCG activity [EC50(nmol)]. The protocol: as §1, with “agonist, GCG-R” for “agonist, GLP-1R”, “with GCG-R” for “with GLP-1R”, “activity assay” for “activity test”, “evaluating GCG” for “evaluating GLP-1”
A CHO-K1 cell line stably expressing GCG-R was used. The stable cells were stimulated with agonists at different concentrations, and the relative luminescence units after stimulation at each concentration were measured to calculate the EC50 value of the agonist.

Series [3] is described as follows: Preliminary pharmacokinetic evaluation in cynomolgus monkeys (plasma, LC-MS). To be noted: for half-life: cynomolgus monkey, male cynomolgus monkeys, subcutaneously (SC), 0.2 mg/kg, plasma; for half-lives: cynomolgus monkeys, administered subcutaneously. It is filed as in vivo. The protocol:
Among the above compounds, the principle of modification for long-acting was essentially the same.
The test animals were male cynomolgus monkeys. Two animals were used for each compound. The compounds were administered subcutaneously at a dose of 0.2 mg/kg. Blood samples were collected via intravenous sampling prior to administration (0 h) and at 1 h, 2 h, 3 h, 4 h, 8 h, 12 h, 18 h, 24 h, 48 h, 96 h, 144 h, and 168 h after administration. Plasma samples were obtained by centrifugation. The plasma concentrations of the compounds were respectively determined by liquid chromatography - mass spectrometry (LC-MS).

T2 sequence (P47871 26-477, species assumed): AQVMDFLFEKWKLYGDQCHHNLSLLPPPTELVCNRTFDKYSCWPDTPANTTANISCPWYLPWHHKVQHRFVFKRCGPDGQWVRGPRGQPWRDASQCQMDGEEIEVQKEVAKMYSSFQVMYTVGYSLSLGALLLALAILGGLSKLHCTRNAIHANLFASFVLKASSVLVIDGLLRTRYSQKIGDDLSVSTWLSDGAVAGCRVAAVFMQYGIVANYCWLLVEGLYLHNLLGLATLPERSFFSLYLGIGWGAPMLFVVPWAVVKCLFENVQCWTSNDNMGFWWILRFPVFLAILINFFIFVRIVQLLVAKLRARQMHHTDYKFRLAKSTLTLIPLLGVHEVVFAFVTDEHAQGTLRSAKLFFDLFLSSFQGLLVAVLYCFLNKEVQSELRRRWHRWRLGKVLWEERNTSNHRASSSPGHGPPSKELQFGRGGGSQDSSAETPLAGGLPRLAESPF
T1 sequence (P43220 24-463, species assumed): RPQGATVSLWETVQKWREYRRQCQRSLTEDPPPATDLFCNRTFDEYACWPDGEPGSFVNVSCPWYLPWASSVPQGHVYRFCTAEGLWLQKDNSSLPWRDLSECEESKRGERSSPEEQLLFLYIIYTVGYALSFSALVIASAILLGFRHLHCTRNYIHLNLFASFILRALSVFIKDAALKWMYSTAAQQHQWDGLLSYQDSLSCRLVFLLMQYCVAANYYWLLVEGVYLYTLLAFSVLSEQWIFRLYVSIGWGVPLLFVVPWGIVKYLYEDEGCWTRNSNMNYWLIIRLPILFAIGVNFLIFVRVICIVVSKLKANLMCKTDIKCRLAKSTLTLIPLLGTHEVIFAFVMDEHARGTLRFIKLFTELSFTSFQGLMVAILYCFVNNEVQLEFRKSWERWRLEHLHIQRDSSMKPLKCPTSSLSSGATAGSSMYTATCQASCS

For `CC(C)C[C@H](NC(=O)[C@H](CC(C)C)NC(=O)[C@H](Cc1c[nH]c2ccccc12)NC(=O)[C@H](CCC(=O)O)NC(=O)[C@@H](NC(=O)[C@H](Cc1ccccc1)NC(=O)[C@H](CCC(=O)O)NC(=O)[C@H](CCCCNC(=O)COCCOCCOCCOCCOCCNC(=O)CCC[C@H](NC(=O)CCCCCCCCCCCCCCCCCCC(=O)O)C(=O)O)NC(=O)[C@H](C)NC(=O)[C@H](CCCCN)NC(=O)[C@H](CCCCN)NC(=O)[C@H](CCC(=O)O)NC(=O)[C@H](CC(=O)O)NC(=O)[C@H](CC(C)C)NC(=O)[C@H](Cc1ccc(O)cc1)NC(=O)[C@H](CCCCN)NC(=O)[C@H](CO)NC(=O)[C@H](Cc1ccc(O)cc1)NC(=O)[C@H](CC(=O)O)NC(=O)[C@H](CO)NC(=O)[C@@H](NC(=O)C(C)(Cc1ccccc1)NC(=O)[C@@H](NC(=O)CNC(=O)[C@H](CCC(N)=O)NC(=O)C(C)(C)NC(=O)[C@@H](N)Cc1c[nH]cn1)[C@@H](C)O)[C@@H](C)O)C(C)C)C(=O)N[C@@H](CCC(=O)O)C(=O)NCCCCC(=O)N1CCC[C@H]1C(=O)N[C@@H](CO)C(=O)N[C@@H](CO)C(=O)NCC(=O)N[C@@H](C)C(=O)N1CCC[C@H]1C(=O)N1CCC[C@H]1C(=O)N1CCC[C@H]1C(=O)N[C@@H](CO)C(N)=O` (some centres unmarked) [Compound 6], in series [1], the 50% effective concentration (EC50) worked out at 0.0809 nM. In addition, the EC50 in series [2] worked out at 2.1 nM. Further, in series [3], the half-life is 125 h and the half-lives result is “greater than 100 hours”.
In the same order, the values of `CC(C)C[C@H](NC(=O)[C@H](CC(C)C)NC(=O)[C@H](Cc1c[nH]c2ccccc12)NC(=O)[C@H](CCC(=O)O)NC(=O)[C@@H](NC(=O)[C@H](Cc1ccccc1)NC(=O)[C@H](CCC(=O)O)NC(=O)[C@H](CCCCNC(=O)COCCOCCOCCOCCOCCNC(=O)CCC[C@H](NC(=O)CCCCCCCCCCCCCCCCCCC(=O)O)C(=O)O)NC(=O)[C@H](C)NC(=O)[C@H](CCCCN)NC(=O)[C@H](CCCCN)NC(=O)[C@H](CCC(=O)O)NC(=O)[C@H](CC(=O)O)NC(=O)[C@H](CC(C)C)NC(=O)[C@H](Cc1ccc(O)cc1)NC(=O)[C@H](CCCCN)NC(=O)[C@H](CO)NC(=O)[C@H](Cc1ccc(O)cc1)NC(=O)[C@H](CC(=O)O)NC(=O)[C@H](CO)NC(=O)[C@@H](NC(=O)C(C)(Cc1ccccc1F)NC(=O)[C@@H](NC(=O)CNC(=O)[C@H](CCC(N)=O)NC(=O)C(C)(C)NC(=O)[C@@H](N)Cc1c[nH]cn1)[C@@H](C)O)[C@@H](C)O)C(C)C)C(=O)N[C@@H](CCC(=O)O)C(=O)NCCCCC(=O)N1CCC[C@H]1C(=O)N[C@@H](CO)C(=O)N[C@@H](CO)C(=O)NCC(=O)N[C@@H](C)C(=O)N1CCC[C@H]1C(=O)N1CCC[C@H]1C(=O)N1CCC[C@H]1C(=O)N[C@@H](CO)C(N)=O` (some centres unmarked) [Compound 10] are 0.0755 nM, 1.2 nM, 136 h and “greater than 100 hours”.

Usually EC50 stands for the concentration needed to bring the measured effect to its halfway point. As usually defined, the half-life is the time needed for the level to fall by half in the phase considered. A low value points to rapid decline.

The record behind these values is patent publication EP4806912A1, “DUAL AGONIST COMPOUND” (Chengdu Aoda Biotechnology Co., Ltd, priority 2023, dated 2025).
